Laboratory results: US20070191336A1 (priority 2003, published 2007)
Read-outs that look alike come from different tables or passages of the source.

Key:
[1] = tested on: LPS-induced TNF-alpha release from human peripheral blood mononuclear leukocytes; experiment: Human peripheral blood mononuclear leukocyte cell assay (LPS-induced TNF-alpha release, ELISA); type: cell-based; conditions: 25 ng/mL LPS, 16 hours incubation, read-out: IC50 for inhibition of TNF-alpha release
Protocol: The quantity of LPS-induced tumor necrosis factor-alpha (TNF-alpha) cytokine release is measured by a commercially available Enzyme-Linked Immunosorbent Assay (ELISA) kit. Test compounds are evaluated for their ability to inhibit TNF-alpha release. […] Test compounds evaluated are illustrated in Table 4.

[2] = target: p38 MAP kinase (unphosphorylated p38-alpha kinase) (Homo sapiens, UniProt Q16539); experiment: P38 MAP kinase binding assay (fluorescence competition with SKF 86002 probe); conditions: for Time-dependent: time-dependent if IC50 values decrease with the reaction time (more than two-fold in four hours)
Chain of p38 MAP kinase (unphosphorylated p38-alpha kinase) (Q16539 whole entry): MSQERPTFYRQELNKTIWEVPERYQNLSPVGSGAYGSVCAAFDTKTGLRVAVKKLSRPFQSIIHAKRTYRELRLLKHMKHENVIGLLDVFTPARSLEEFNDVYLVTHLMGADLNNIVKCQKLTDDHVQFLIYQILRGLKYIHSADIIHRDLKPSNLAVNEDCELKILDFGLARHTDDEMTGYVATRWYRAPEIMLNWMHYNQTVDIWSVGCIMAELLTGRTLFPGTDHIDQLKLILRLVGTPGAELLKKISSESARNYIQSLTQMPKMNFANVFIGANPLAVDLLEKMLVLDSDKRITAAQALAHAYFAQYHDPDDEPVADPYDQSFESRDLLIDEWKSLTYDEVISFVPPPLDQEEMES
Protocol: The reaction was initiated by addition of the enzyme. […] By comparison of rfu (relative fluorescence unit) values with that of a control (in the absence of an inhibitor), the percentage of inhibition at each concentration of the inhibitor was calculated. IC50 value for the inhibitor was calculated from the % inhibition values obtained at a range of concentrations of the inhibitor using Prism. When time-dependent inhibition was assessed, the plate was read at multiple reaction times such as 0.5, 1, 2, 3, 4 and 6 hours. The IC50 values were calculated at the each time point. An inhibition was assigned as time-dependent if the IC50 values decrease with the reaction time (more than two-fold in four hours).

[3] = target: T1, phospho p-38 alpha kinase (Homo sapiens, UniProt Q16539); experiment: P-38 alpha kinase assay (spectrophotometric, pyruvate kinase/lactate dehydrogenase coupled); type: biochemical; conditions: Table 2; rates from […] to 2 h time frame
T1 construct: purchased Panvera
T1 sequence (Q16539 whole entry): as above

| SMILES | IC50 [1] [µM] | other results |
| --- | --- | --- |
| CC1(C)C(=O)NN(Cc2cccc(-n3nc(C(C)(C)C)cc3NC(=O)Nc3cccc4ccccc34)c2)C1=O [Example 13, 1-(3-tert-butyl-1-{3-[(4,4-dimethyl-3,5-dioxopyrazolidin-1-yl)methyl]phenyl}-1H-pyrazol-5-yl)-3-(naphthalen-1-yl)urea] | 6.32 |  |
| CC(C)(C)c1cc(NC(=O)Nc2cccc3ccccc23)n(-c2ccc(CCC(=O)O)cc2)n1 [Example 31, 3-{4-[3-tert-butyl-5-(3-(naphthalene-1-yl)ureido]-1H-pyrazol-1-yl}phenyl)propanonic acid] | 4.52 |  |
| CC(C)(C)c1cc(NC(=O)Nc2cccc3ccccc23)n(-c2cccc(CCC(=O)O)c2)n1 [Example 29] | 2.68 |  |
| CC(C)(C)c1cc(NC(=O)Nc2cccc3ccccc23)n(-c2cccc(CC(=O)N3CCOCC3)c2)n1 [Example 21, 1-{3-tert-butyl-1-[3-(2-morpholino-2-oxoethyl)phenyl]-1H-pyrazol-5-yl}-3-(naphthalene-1-yl)urea] | 3.4 | IC50 [2]: 0.048 µM; Time-dependent [2]: Yes; IC50 [3]: 0.171 µM |
| CC(C)(C)c1cc(NC(=O)Nc2cccc3ccccc23)n(-c2cccc(CN3C(=O)CNS3(=O)=O)c2)n1 [Example 3, 1-(3-tert-butyl-1-{[3-(1,1,3-trioxo-[1,2,5]thiadiazolidin-2-yl)methyl]phenyl}-1H-pyrazol-5-yl)-3-(naphthalen-1-yl)urea] | 6.1 |  |
| CC1(C(=O)O)CC2(C)CC(C)(C1)C(=O)N(Cc1cccc(-n3nc(C(C)(C)C)cc3NC(=O)Nc3cccc4ccccc34)c1)C2=O (centres unmarked) [Example 11] |  | IC50 ([2]; read-out: IC50): 2.15 µM; Time-dependent [2]: No; IC50 [3]: 0.953 µM |

The next lines start with results.

| IC50 [1] [µM] | SMILES | other results |
| --- | --- | --- |
| 2.34 | CC(C)(C)c1cc(NC(=O)Nc2ccc(Br)cc2)n(-c2ccc(CO)cc2)n1 [Example 60] |  |
| 3.49 | CCOC(=O)CCc1ccc(-n2nc(C(C)(C)C)cc2NC(=O)Nc2cccc3ccccc23)cc1 [Example 296, ethyl 3-(4-(3-tert-butyl-5-(3-(naphthalen-1-yl)ureido)-1H-pyrazol-1-yl)phenyl)propanoate] |  |
| 4.78 | CC(C)(C)c1cc(NC(=O)Nc2cccc3ccccc23)n(-c2cccc(CCN3CCOCC3)c2)n1 [Example 300] |  |
